Measured values from ChEMBL document CHEMBL3508693 (2016).

Experiments:
[1] = % of radioactivity recovered as M3 in faeces following oral administration of [14C] aliskiren hemifumarate at 100 mg.Kg-1 level in rat; type: ADME, organism-based, Albino HAN:WIST, Feces; conditions: in vivo
[2] = % aliskiren recovered as M3 in urine following single intravenous administration of 10 mg.Kg-1 [14C] aliskiren hemifumarate in male rat; type: ADME, organism-based, HAN:WIST(SPF); conditions: in vivo
[3] = % aliskiren recovered as M3 in bile following single intravenous administration of 10 mg.Kg-1 [14C] aliskiren hemifumarate in male rat; type: ADME, organism-based, HAN:WIST(SPF); conditions: in vivo
[4] = % aliskiren hemifumarate recovered as M3 in faeces following single oral dose of 300 mg [14C]SPP100 studied in healthy men; type: ADME, organism-based, Feces; conditions: human, in vivo, at 300 mg
[5] = % aliskiren hemifumarate (0-168h) recovered as M3 in urine following single oral dose of [14C] aliskiren hemifumarate at 3 mg.Kg-1 level in marmoset; type: ADME, organism-based, Callithrix jacchus; conditions: in vivo
[6] = % of radioactivity recovered as M3 in urine following intravenous administration of [14C] aliskiren hemifumarate at 10 mg.Kg-1 level in rat; type: ADME, organism-based, Albino HAN:WIST; conditions: in vivo
[7] = % aliskiren hemifumarate recovered as M3 in urine following single oral dose of 300 mg [14C]SPP100 studied in healthy men; type: ADME, organism-based; conditions: human, in vivo, at 300 mg
[8] = % aliskiren hemifumarate (0-72h) recovered as M3 in faeces following single intravenous dose of [14C] aliskiren hemifumarate at 1 mg.Kg-1 level in marmoset; type: ADME, organism-based, Callithrix jacchus, Feces; conditions: in vivo
[9] = % aliskiren hemifumarate (0-72h) recovered as M3 in faeces following single oral dose of [14C] aliskiren hemifumarate at 3 mg.Kg-1 level in marmoset; type: ADME, organism-based, Callithrix jacchus, Feces; conditions: in vivo
[10] = % of radioactivity recovered as M3 in plasma following intravenous administration of [14C] aliskiren hemifumarate at 10 mg.Kg-1 level in rat; type: ADME, organism-based, Albino HAN:WIST; conditions: in vivo
[11] = % of radioactivity recovered as M3 in urine following oral administration of [14C] aliskiren hemifumarate at 100 mg.Kg-1 level in rat; type: ADME, organism-based, Albino HAN:WIST; conditions: in vivo
[12] = % aliskiren hemifumarate (0-168h) recovered as M3 in urine following single intravenous dose of [14C] aliskiren hemifumarate at 1 mg.Kg-1 level in marmoset; type: ADME, organism-based, Callithrix jacchus; conditions: in vivo
[13] = % of radioactivity recovered as M3 in plasma following oral administration of [14C] aliskiren hemifumarate at 100 mg.Kg-1 level in rat; type: ADME, organism-based, Albino HAN:WIST; conditions: in vivo
[14] = % aliskiren recovered as M3 in hydrolysed following single intravenous administration of 10 mg.Kg-1 [14C] aliskiren hemifumarate in male rat; type: ADME, organism-based, HAN:WIST(SPF), Bile; conditions: in vivo
[15] = % of radioactivity recovered as M3 in faeces following intravenous administration of [14C] aliskiren hemifumarate at 10 mg.Kg-1 level in rat; type: ADME, organism-based, Albino HAN:WIST, Feces; conditions: in vivo
[16] = % aliskiren recovered as M3 of receiver rat following duodenal infusion of radioactivity through bile from donor rat treated with single intravenous administration of 10 mg.Kg-1 [14C] aliskiren hemifumarate; type: ADME, organism-based, HAN:WIST(SPF); conditions: in vivo
[17] = % aliskiren hemifumarate recovered as M3 in urine and faeces following single oral dose of 300 mg [14C]SPP100 studied in healthy men; type: ADME, organism-based, Urine/Feces; conditions: human, in vivo, at 300 mg
[18] = % aliskiren hemifumarate recovered as M4 in urine following single oral dose of 300 mg [14C]SPP100 studied in healthy men; type: ADME, organism-based; conditions: human, in vivo, at 300 mg
[19] = % aliskiren hemifumarate (0-72h) recovered as M4 in faeces following single intravenous dose of [14C] aliskiren hemifumarate at 1 mg.Kg-1 level in marmoset; type: ADME, organism-based, Callithrix jacchus, Feces; conditions: in vivo
[20] = % of radioactivity recovered as M4 in urine following intravenous administration of [14C] aliskiren hemifumarate at 10 mg.Kg-1 level in rat; type: ADME, organism-based, Albino HAN:WIST; conditions: in vivo
[21] = % of radioactivity recovered as M4 in faeces following intravenous administration of [14C] aliskiren hemifumarate at 10 mg.Kg-1 level in rat; type: ADME, organism-based, Albino HAN:WIST, Feces; conditions: in vivo
[22] = % aliskiren hemifumarate (0-168h) recovered as M4 in urine following single oral dose of [14C] aliskiren hemifumarate at 3 mg.Kg-1 level in marmoset; type: ADME, organism-based, Callithrix jacchus; conditions: in vivo
[23] = % aliskiren recovered as M4 in hydrolysed following single intravenous administration of 10 mg.Kg-1 [14C] aliskiren hemifumarate in male rat; type: ADME, organism-based, HAN:WIST(SPF), Bile; conditions: in vivo
[24] = % aliskiren recovered as M4 in bile following single intravenous administration of 10 mg.Kg-1 [14C] aliskiren hemifumarate in male rat; type: ADME, organism-based, HAN:WIST(SPF); conditions: in vivo
[25] = % aliskiren hemifumarate recovered as M4 in urine and faeces following single oral dose of 300 mg [14C]SPP100 studied in healthy men; type: ADME, organism-based, Urine/Feces; conditions: human, in vivo, at 300 mg
[26] = % of radioactivity recovered as M4 in urine following oral administration of [14C] aliskiren hemifumarate at 100 mg.Kg-1 level in rat; type: ADME, organism-based, Albino HAN:WIST; conditions: in vivo
[27] = % of radioactivity recovered as M4 in plasma following oral administration of [14C] aliskiren hemifumarate at 100 mg.Kg-1 level in rat; type: ADME, organism-based, Albino HAN:WIST; conditions: in vivo
[28] = % of radioactivity recovered as M4 in plasma following intravenous administration of [14C] aliskiren hemifumarate at 10 mg.Kg-1 level in rat; type: ADME, organism-based, Albino HAN:WIST; conditions: in vivo
[29] = % of radioactivity recovered as M4 in faeces following oral administration of [14C] aliskiren hemifumarate at 100 mg.Kg-1 level in rat; type: ADME, organism-based, Albino HAN:WIST, Feces; conditions: in vivo
[30] = % aliskiren hemifumarate recovered as M4 in faeces following single oral dose of 300 mg [14C]SPP100 studied in healthy men; type: ADME, organism-based, Feces; conditions: human, in vivo
[31] = % aliskiren recovered as M4 of receiver rat following duodenal infusion of radioactivity through bile from donor rat treated with single intravenous administration of 10 mg.Kg-1 [14C] aliskiren hemifumarate; type: ADME, organism-based, HAN:WIST(SPF); conditions: in vivo
[32] = % aliskiren hemifumarate (0-168h) recovered as M4 in urine following single intravenous dose of [14C] aliskiren hemifumarate at 1 mg.Kg-1 level in marmoset; type: ADME, organism-based, Callithrix jacchus; conditions: in vivo
[33] = % aliskiren recovered as M4 in urine following single intravenous administration of 10 mg.Kg-1 [14C] aliskiren hemifumarate in male rat; type: ADME, organism-based, HAN:WIST(SPF); conditions: in vivo
[34] = % aliskiren hemifumarate (0-72h) recovered as M4 in faeces following single oral dose of [14C] aliskiren hemifumarate at 3 mg.Kg-1 level in marmoset; type: ADME, organism-based, Callithrix jacchus, Feces; conditions: in vivo

For `COc1ccc(C[C@@H](C[C@H](N)[C@@H](O)C[C@H](C(=O)NCC(C)(C)C(N)=O)C(C)C)C(C)C)cc1OCCCO`, the Compound recovery [1] was “<= 2%”, the Compound recovery [2] was 4.7% and the Compound recovery [3] was 15.9%. The Compound recovery [4] was 0.6%, the Compound recovery [5] was 0.1% and the Compound recovery [6] was “<= 2%”. It also gave a Compound recovery [7] of less than 0.1%, a Compound recovery [8] of 17% and a Compound recovery [9] of 2%. The Compound recovery [10] was “OUTCOME = Not detected or not investigated”, the Compound recovery [11] was “<= 2%” and the Compound recovery [12] was 0.4%. The Compound recovery [13] was “<= 2%”, the Compound recovery [14] was 15.5% and the Compound recovery [15] was greater than 2%. For the same compound, the Compound recovery [16] was 15.2% and the Compound recovery [17] was less than 0.6%.

With `COc1ccc(C[C@@H](C[C@H](N)[C@@H](O)C[C@H](C(=O)NCC(C)(C)C(N)=O)C(C)C)C(C)C)cc1O` the Compound recovery [18] was less than 0.1%, the Compound recovery [19] was 2% and the Compound recovery [20] was “OUTCOME = Not detected or not investigated”. For the same compound, the Compound recovery [21] was “OUTCOME = Not detected or not investigated”, the Compound recovery [22] was 0% and the Compound recovery [23] was 4.5%. For the same compound, the Compound recovery [24] was 1.4%, the Compound recovery [25] was less than 0.1% and the Compound recovery [26] was “<= 2%”. The Compound recovery [27] was “<= 2%”, the Compound recovery [28] was “OUTCOME = Not detected or not investigated” and the Compound recovery [29] was “<= 2%”. The Compound recovery [30] was “OUTCOME = Not detected”, the Compound recovery [31] was “OUTCOME = Not detected” and the Compound recovery [32] was 0.1%. The Compound recovery [33] was 0.9% and the Compound recovery [34] was 1%.
